Patent US11162944B2, “Compositions and methods” (priority 2015, dated 2021)
Where two headings read alike, the source gives them in different places. Marks after values point to notes of the source that are not given here.

Key:
[1] = test system: biomarker (antibody) in serum samples from patients with symptoms of tuberculosis; assay type: binding, human
wild-type BMDCs = assay: IL-6 secretion by bone marrow-derived dendritic cells, cytokine-specific ELISA; assay type: cell-based, mice; details: antigens at 100 μg/ml coated on plate, ISO as solvent, FIG. 1
Procedure: The concentrations of cytokines in the cell-free medium from stimulation of bone marrow-derived dendritic cells were determined using standard cytokine-specific ELISA. BMDCs were generated from mice, by flushing out the femurs of mice into complete medium and pipetting vigorously to make a single-cell suspension. The glycolipids were coated to the bottom of 96 micro-well plates (100 μg/ml). BMDCs were added, and after 6 or 48 hours of incubation the supernatants were harvested.
The first experiment was the IL-6 secretion by wild-type BMDCs from mice using compounds B, D, C and H (shown below) as antigens at 100 μg/ml, and isopropyl alcohol (ISO) as a solvent. Commercial trehalose-6,6-dimycolate (TDM), lipopolysaccharides (LPS), and trehalose-6,6-dibehenate (TDB) were used as a controls.

SMILES: CCCCCCCCCCCCCCCCCCCCCC[C@@H](C(=O)OC[C@H]1O[C@H](OC)[C@@H](O)[C@@H]1O)[C@H](O)CCCCCCCCCCCCCCC[C@@H]1C[C@@H]1CCCCCCCCCCCCCCCCCCC(=O)C(C)CCCCCCCCCCCCCCCCCC (stereo partly shown) [Antigen C]
- ELISA absorbance at 492 nm ([1]; serum sample 1 TB+): 0.33*
- ELISA absorbance at 492 nm ([1]; serum sample 2 TB+): 0.26*
- ELISA absorbance at 492 nm ([1]; serum sample 3 TB+): 0.44*
- ELISA absorbance at 492 nm ([1]; serum sample 4 TB+): 0.48*
- ELISA absorbance at 492 nm ([1]; serum sample 5 TB+): 0.40*
- ELISA absorbance at 492 nm ([1]; serum sample 6 TB+): 0.39*
- ELISA absorbance at 492 nm ([1]; serum sample 7 TB+): 1.37*
- ELISA absorbance at 492 nm ([1]; serum sample 8 TB+): 0.46*
- ELISA absorbance at 492 nm ([1]; serum sample 9 TB+): 0.35*
- ELISA absorbance at 492 nm ([1]; serum sample 10 TB−): 0.22
- ELISA absorbance at 492 nm ([1]; serum sample 11 TB−): 0.20
- ELISA absorbance at 492 nm ([1]; serum sample 12 TB−): 0.18
- ELISA absorbance at 492 nm ([1]; serum sample 13 TB−): 0.24
- ELISA absorbance at 492 nm ([1]; serum sample 14 TB−): 0.56*
- ELISA absorbance at 492 nm ([1]; serum sample 15 TB−): 0.22
- ELISA absorbance at 492 nm ([1]; serum sample 16 TB−): 0.30*
- ELISA absorbance at 492 nm ([1]; serum sample 17 TB−): 0.57*
- ELISA absorbance at 492 nm ([1]; serum sample 18 TB−): 0.32*
- ELISA absorbance at 492 nm ([1]; serum sample 19 TB−): 0.20
- ELISA absorbance at 492 nm ([1]; serum sample 20 TB−): 0.41*
- ELISA absorbance at 492 nm ([1]; serum sample 21 TB−): 0.41*
- ELISA absorbance at 492 nm ([1]; serum sample 22 TB−): 0.31*
- ELISA absorbance at 492 nm ([1]; serum sample 23 TB−): 0.27*
- ELISA absorbance at 492 nm ([1]; serum sample 24 TB−): 0.53*
- ELISA absorbance at 492 nm ([1]; serum sample 25 TB−): 0.24
- ELISA absorbance at 492 nm ([1]; serum sample 26 TB−): 0.90*
- ELISA absorbance at 492 nm ([1]; serum sample 27 TB−): 0.46*
- ELISA absorbance at 492 nm ([1]; serum sample 28 TB−): 0.42*
- ELISA absorbance at 492 nm ([1]; serum sample 29 TB−): 0.38*
- ELISA absorbance at 492 nm ([1]; serum sample 30 TB−): 0.39*
- ELISA absorbance at 492 nm ([1]; serum sample 31 TB−): 0.51*
- ELISA absorbance at 492 nm ([1]; serum sample 32 TB−): 1.01*
- ELISA absorbance at 492 nm ([1]; serum sample 33 TB−): 0.33*
- ELISA absorbance at 492 nm ([1]; serum sample 34 TB−): 0.52*
- ELISA absorbance at 492 nm ([1]; serum sample 35 TB−): 0.55*
- ELISA absorbance at 492 nm ([1]; serum sample 36 TB−): 0.25
- ELISA absorbance at 492 nm ([1]; serum sample 37 TB−): 0.43*
- ELISA absorbance at 492 nm ([1]; serum sample 38 TB−): 0.43*
- ELISA absorbance at 492 nm ([1]; serum sample 39 TB−): 0.34*
- ELISA absorbance at 492 nm ([1]; serum sample 40 TB−): 0.26*
- ELISA absorbance at 492 nm ([1]; serum sample 41 TB−): 0.44*
- ELISA absorbance at 492 nm ([1]; serum sample 42 TB−): 0.42*
- ELISA absorbance at 492 nm ([1]; serum sample 43 TB−): 0.32*
- ELISA absorbance at 492 nm ([1]; serum sample 44 TB−): 1.32*
- ELISA absorbance at 492 nm ([1]; serum sample 45 TB−): 0.49*
- ELISA absorbance at 492 nm ([1]; serum sample 46 TB−): 0.28*
- ELISA absorbance at 492 nm ([1]; serum sample 47 TB−): 0.56*
- ELISA absorbance at 492 nm ([1]; serum sample 48 TB−): 0.55*
- ELISA absorbance at 492 nm ([1]; serum sample 49 TB−): 0.79*
- ELISA absorbance at 492 nm ([1]; serum sample 50 TB−): 0.38*
- ELISA absorbance at 492 nm ([1]; serum sample 51 TB−): 0.18
- ELISA absorbance at 492 nm ([1]; serum sample 52 TB−): 0.32*
- ELISA absorbance at 492 nm ([1]; serum sample 53 TB−): 0.21
- ELISA absorbance at 492 nm ([1]; serum sample 54 TB−): 0.26*
- ELISA absorbance at 492 nm ([1]; serum sample 55 TB−): 0.31*
- ELISA absorbance at 492 nm ([1]; serum sample 56 TB−): 0.90*
- ELISA absorbance at 492 nm ([1]; serum sample 57 TB−): 0.55*
- ELISA absorbance at 492 nm ([1]; serum sample 58 TB−): 0.44*
- ELISA absorbance at 492 nm ([1]; serum sample 59 TB−): 0.65*
- ELISA absorbance at 492 nm ([1]; serum sample 60 TB−): 0.62*
- ELISA absorbance at 492 nm ([1]; serum sample 61 TB−): 0.76*
- ELISA absorbance at 492 nm ([1]; serum sample 62 TB−): 0.19
- ELISA absorbance at 492 nm ([1]; serum sample 63 TB−): 0.26*
- ELISA absorbance at 492 nm ([1]; serum sample 64 TB−): 0.37*
- IL-6 secretion by wild-type BMDCs (wild-type BMDCs): no significant stimulation

SMILES: CCCCCCCCCCCCCCCCCCCCCCCC[C@@H](C(=O)OC[C@H]1O[C@H](OC)[C@@H](O)[C@@H]1O)[C@H](O)CCCCCCCCCCCCCCCCC[C@@H]1C[C@@H]1CCCCCCCCCCCCCCCC[C@@H](OC)[C@@H](C)CCCCCCCCCCCCCCCCCC [Antigen B]
- ELISA absorbance at 492 nm ([1]; serum sample 1 TB+): 0.48*
- ELISA absorbance at 492 nm ([1]; serum sample 2 TB+): 0.54*
- ELISA absorbance at 492 nm ([1]; serum sample 3 TB+): 1.10*
- ELISA absorbance at 492 nm ([1]; serum sample 4 TB+): 1.00*
- ELISA absorbance at 492 nm ([1]; serum sample 5 TB+): 0.45*
- ELISA absorbance at 492 nm ([1]; serum sample 6 TB+): 0.97*
- ELISA absorbance at 492 nm ([1]; serum sample 7 TB+): 0.87*
- ELISA absorbance at 492 nm ([1]; serum sample 8 TB+): 0.97*
- ELISA absorbance at 492 nm ([1]; serum sample 9 TB+): 0.62*
- ELISA absorbance at 492 nm ([1]; serum sample 10 TB−): 0.56*
- ELISA absorbance at 492 nm ([1]; serum sample 11 TB−): 0.64*
- ELISA absorbance at 492 nm ([1]; serum sample 12 TB−): 0.44
- ELISA absorbance at 492 nm ([1]; serum sample 13 TB−): 0.56*
- ELISA absorbance at 492 nm ([1]; serum sample 14 TB−): 0.91*
- ELISA absorbance at 492 nm ([1]; serum sample 15 TB−): 0.53*
- ELISA absorbance at 492 nm ([1]; serum sample 16 TB−): 0.52*
- ELISA absorbance at 492 nm ([1]; serum sample 17 TB−): 0.87*
- ELISA absorbance at 492 nm ([1]; serum sample 18 TB−): 0.44
- ELISA absorbance at 492 nm ([1]; serum sample 19 TB−): 0.53*
- ELISA absorbance at 492 nm ([1]; serum sample 20 TB−): 0.63*
- ELISA absorbance at 492 nm ([1]; serum sample 21 TB−): 0.42
- ELISA absorbance at 492 nm ([1]; serum sample 22 TB−): 0.33
- ELISA absorbance at 492 nm ([1]; serum sample 23 TB−): 0.48*
- ELISA absorbance at 492 nm ([1]; serum sample 24 TB−): 0.81*
- ELISA absorbance at 492 nm ([1]; serum sample 25 TB−): 0.23
- ELISA absorbance at 492 nm ([1]; serum sample 26 TB−): 0.64*
- ELISA absorbance at 492 nm ([1]; serum sample 27 TB−): 0.60*
- ELISA absorbance at 492 nm ([1]; serum sample 28 TB−): 0.42
- ELISA absorbance at 492 nm ([1]; serum sample 29 TB−): 0.39
- ELISA absorbance at 492 nm ([1]; serum sample 30 TB−): 0.41
- ELISA absorbance at 492 nm ([1]; serum sample 31 TB−): 0.37
- ELISA absorbance at 492 nm ([1]; serum sample 32 TB−): 0.68*
- ELISA absorbance at 492 nm ([1]; serum sample 33 TB−): 0.36
- ELISA absorbance at 492 nm ([1]; serum sample 34 TB−): 0.47*
- ELISA absorbance at 492 nm ([1]; serum sample 35 TB−): 0.38
- ELISA absorbance at 492 nm ([1]; serum sample 36 TB−): 0.28
- ELISA absorbance at 492 nm ([1]; serum sample 37 TB−): 0.40
- ELISA absorbance at 492 nm ([1]; serum sample 38 TB−): 0.44
- ELISA absorbance at 492 nm ([1]; serum sample 39 TB−): 0.31
- ELISA absorbance at 492 nm ([1]; serum sample 40 TB−): 0.28
- ELISA absorbance at 492 nm ([1]; serum sample 41 TB−): 0.51*
- ELISA absorbance at 492 nm ([1]; serum sample 42 TB−): 0.49*
- ELISA absorbance at 492 nm ([1]; serum sample 43 TB−): 0.28
- ELISA absorbance at 492 nm ([1]; serum sample 44 TB−): 0.60*
- ELISA absorbance at 492 nm ([1]; serum sample 45 TB−): 0.34
- ELISA absorbance at 492 nm ([1]; serum sample 46 TB−): 0.27
- ELISA absorbance at 492 nm ([1]; serum sample 47 TB−): 0.35
- ELISA absorbance at 492 nm ([1]; serum sample 48 TB−): 0.29
- ELISA absorbance at 492 nm ([1]; serum sample 49 TB−): 0.47*
- ELISA absorbance at 492 nm ([1]; serum sample 50 TB−): 0.31
- ELISA absorbance at 492 nm ([1]; serum sample 51 TB−): 0.22
- ELISA absorbance at 492 nm ([1]; serum sample 52 TB−): 0.28
- ELISA absorbance at 492 nm ([1]; serum sample 53 TB−): 0.24
- ELISA absorbance at 492 nm ([1]; serum sample 54 TB−): 0.25
- ELISA absorbance at 492 nm ([1]; serum sample 55 TB−): 0.27
- ELISA absorbance at 492 nm ([1]; serum sample 56 TB−): 0.42
- ELISA absorbance at 492 nm ([1]; serum sample 57 TB−): 0.40
- ELISA absorbance at 492 nm ([1]; serum sample 58 TB−): 0.32
- ELISA absorbance at 492 nm ([1]; serum sample 59 TB−): 0.30
- ELISA absorbance at 492 nm ([1]; serum sample 60 TB−): 0.36
- ELISA absorbance at 492 nm ([1]; serum sample 61 TB−): 0.36
- ELISA absorbance at 492 nm ([1]; serum sample 62 TB−): 0.26
- ELISA absorbance at 492 nm ([1]; serum sample 63 TB−): 0.21
- ELISA absorbance at 492 nm ([1]; serum sample 64 TB−): 2.33*
- IL-6 secretion by wild-type BMDCs (wild-type BMDCs): good level of stimulation
